For assay [1], the target named is T1, HIV Env six-helix bundle (6HB) structure (Human immunodeficiency virus type 1 group M subtype B, UniProt P04579).
T1 construct: H9 cells chronically infected with HIV-1 (H9/HIV-1RF); endogenous in cells; host or cells: H9 cells chronically infected with HIV-1 strain RF (Env is made from the virus in the infected cells, not by transfection)
In words: Six-helix bundle (6HB) assay. In kind it is cell-based, HIV-1 (strain RF). The method in brief:
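Chronically HIV-1 RF-infected H9 cells (12-40 days post-infection), 2.5×10^5 per well, were preincubated with compound for 30 min at 37 °C. sCD4 at 1 μg/mL was added for 1 h to trigger Env changes. 6HB-specific rabbit serum (1 h, 37 °C) was then added, followed by PE anti-rabbit (45 min, 4 °C), with flow cytometric fluorescence read-out.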

Assay [2] concerns HIV-1, NL4-3 strain. In words: Virus infection assay (virus entry and single-cycle infection). In kind it is cell-based. As to conditions: Human immunodeficiency virus 1, NL43, TZM-b1, read-out: Nl4. The method in brief:
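TZM-b1 cells (CD4, CXCR4, CCR5; LTR-driven lacZ/luciferase reporters) were infected with HIV-1 NL4-3 (MOI 0.01) with 80 μg/mL DEAE-dextran in the presence of test compound, 4 h at 37 °C before adding complete medium. Infection was quantified one day post-infection as chemiluminescent β-galactosidase signal.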

SMILES strings stand for the structures. pIC50: −log10 of the molar value. Some results are limits rather than exact numbers.

T1 sequence (P04579 32-519): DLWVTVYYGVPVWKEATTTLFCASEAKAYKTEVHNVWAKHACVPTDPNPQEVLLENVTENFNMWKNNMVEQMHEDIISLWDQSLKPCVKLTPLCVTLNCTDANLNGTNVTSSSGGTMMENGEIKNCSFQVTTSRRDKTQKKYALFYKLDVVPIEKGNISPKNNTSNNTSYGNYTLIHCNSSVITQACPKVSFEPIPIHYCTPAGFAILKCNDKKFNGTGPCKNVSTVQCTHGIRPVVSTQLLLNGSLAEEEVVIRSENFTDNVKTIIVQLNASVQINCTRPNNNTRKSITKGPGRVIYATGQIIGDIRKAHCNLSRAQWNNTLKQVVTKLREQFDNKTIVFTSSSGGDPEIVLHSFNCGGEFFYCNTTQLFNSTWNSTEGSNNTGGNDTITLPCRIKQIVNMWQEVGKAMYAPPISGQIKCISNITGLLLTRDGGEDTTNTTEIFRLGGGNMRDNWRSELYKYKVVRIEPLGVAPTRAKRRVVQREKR
T1 sequence (P04579 520-865): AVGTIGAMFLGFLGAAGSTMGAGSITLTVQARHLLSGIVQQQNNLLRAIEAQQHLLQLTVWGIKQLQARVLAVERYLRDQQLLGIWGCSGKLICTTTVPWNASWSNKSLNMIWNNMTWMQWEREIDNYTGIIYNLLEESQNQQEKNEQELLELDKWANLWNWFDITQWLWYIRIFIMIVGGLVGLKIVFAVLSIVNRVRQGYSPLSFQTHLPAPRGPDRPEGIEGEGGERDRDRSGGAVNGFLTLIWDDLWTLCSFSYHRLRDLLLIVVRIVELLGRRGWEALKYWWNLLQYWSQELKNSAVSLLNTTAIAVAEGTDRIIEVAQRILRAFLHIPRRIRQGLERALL

Take `COc1ccc(-c2nc3c(C(=O)N4CCN([C@@H](CO)c5ccc(Cl)s5)C[C@H]4C)cnn3c(C(F)(F)F)c2C)cc1` [methanone, [(2R)-4-[(1S)-1-(5-chloro-2-thienyl)-2-hydroxyethyl]-2-methyl-1-piperazinyl][5-(4-methoxyphenyl)-6-methyl-7-(trifluoromethyl)pyrazolo[1,5-α]pyrimidin-3-yl]-]: the pIC50 in assay [1] and in assay [2] was more than 6.00 in each case.
Turning to `COc1ccc(-c2nc3c(C(=O)N4CCN(C(CO)c5cccc(NC(=O)C6CC6)c5)C[C@H]4C)cnn3c(C(F)(F)F)c2C)cc1` (stereo partly drawn) [cyclopropanecarboxamide, N-[3-[2-hydroxy-1-[(3R)-4-[[5-(4-methoxyphenyl)-6-methyl-7-(trifluoromethyl)pyrazolo[1,5-α]pyrimidin-3-yl]carbonyl]-3-methyl-1-piperazinyl]ethyl]phenyl]-], the pIC50 in assay [1] and in assay [2] was more than 6.00 each time.
As to `COc1ccc(-c2nc3c(C(=O)N4CCN([C@@H](CO)c5ccccc5)C[C@H]4C)cnn3c(N(C)C)c2F)cc1` [methanone, [7-(dimethylamino)-6-fluoro-5-(4-methoxyphenyl)pyrazolo[1,5-α]pyrimidin-3-yl][(2R)-4-[(1R)-2-hydroxy-1-phenylethyl]-2-methyl-1-piperazinyl]-], the pIC50 in assay [1] and in assay [2] was more than 6.00 in each case.
On to `COc1ccc(-c2nc3c(C(=O)N4CCN([C@H](CO)c5ccccc5)C[C@H]4C)cnn3c(C(F)(F)F)c2C)cc1` [methanone, [(2R)-4-[(1S)-2-hydroxy-1-phenylethyl]-2-methyl-1-piperazinyl][5-(4-methoxyphenyl)-6-methyl-7-(trifluoromethyl)pyrazolo[1,5-α]pyrimidin-3-yl]-], for which the pIC50 in assay [1] and in assay [2] was more than 6.00 throughout.
As to `COc1ccc(-c2nc3c(C(=O)N4CCN([C@@H](C)c5ccn(C)n5)C[C@H]4C)cnn3c(C(F)(F)F)c2C)cc1` [methanone, [5-(4-methoxyphenyl)-6-methyl-7-(trifluoromethyl)pyrazolo[1,5-α]pyrimidin-3-yl][(2R)-2-methyl-4-[(1S)-1-(1-methyl-1H-pyrazol-3-yl)ethyl]-1-piperazinyl]-], the pIC50 is 5.00 to 5.96 in assay [1] and more than 6.00 in assay [2].
For `COc1ccc(-c2nc3c(C(=O)N4CCN([C@H](C)c5cc(F)c(F)c(F)c5)C[C@H]4C)cnn3c(C(F)(F)F)c2C)cc1` [methanone, [5-(4-methoxyphenyl)-6-methyl-7-(trifluoromethyl)pyrazolo[1,5-α]pyrimidin-3-yl][(2R)-2-methyl-4-[(1R)-1-(3,4,5-trifluorophenyl)ethyl]-1-piperazinyl]-], the pIC50 in assay [1] and in assay [2] was more than 6.00 throughout.
`COc1ccc(-c2nc3c(C(=O)N4CCN(C(CO)c5ccccc5NC(=O)C(C)C)C[C@H]4C)cnn3c(C(F)(F)F)c2C)cc1` (stereo partly drawn) [propanamide, N-[2-[2-hydroxy-1-[(3R)-4-[[5-(4-methoxyphenyl)-6-methyl-7-(trifluoromethyl)pyrazolo[1,5-α]pyrimidin-3-yl]carbonyl]-3-methyl-1-piperazinyl]ethyl]phenyl]-2-methyl-]: the pIC50 in assay [1] and in assay [2] was less than 5.00 throughout.
As for `COc1ccc(-c2nc3c(C(=O)N4CCN(C(CO)c5cc(F)cc(F)c5OC)C[C@H]4C)cnn3c(C(F)(F)F)c2C)cc1` (stereo partly drawn) [methanone, [(2R)-4-[1-(3,5-difluoro-2-methoxyphenyl)-2-hydroxyethyl]-2-methyl-1-piperazinyl][5-(4-methoxyphenyl)-6-methyl-7-(trifluoromethyl)pyrazolo[1,5-α]pyrimidin-3-yl]-], the pIC50 in assay [1] and in assay [2] was more than 6.00 in each case.
As for `COc1ccc(-c2nc3c(C(=O)N4CCN(C(CN)c5ccccc5)C[C@H]4C)cnn3c(C(F)(F)F)c2C)cc1` (stereo partly drawn) [methanone, [(2R)-4-(2-amino-1-phenylethyl)-2-methyl-1-piperazinyl][5-(4-methoxyphenyl)-6-methyl-7-(trifluoromethyl)pyrazolo[1,5-α]pyrimidin-3-yl]-], the pIC50 in assay [1] and in assay [2] was more than 6.00 in each case.
For the molecule `COc1ccc(-c2nc3c(C(=O)N4CCN([C@@H](C)c5ccc(S(C)(=O)=O)cc5)C[C@H]4C)cnn3c(C(F)(F)F)c2C)cc1` [methanone, [5-(4-methoxyphenyl)-6-methyl-7-(trifluoromethyl)pyrazolo[1,5-α]pyrimidin-3-yl][(2R)-2-methyl-4-[(1S)-1-[4-(methylsulfonyl)phenyl]ethyl]-1-piperazinyl]-], the pIC50 in assay [1] and in assay [2] was 5.00 to 5.96 in each case.
On to `COc1ccc(-c2nc3c(C(=O)N4CCN(C(CO)c5c(F)ccc(OC)c5F)C[C@H]4C)cnn3c(C(F)(F)F)c2C)cc1` (stereo partly drawn) [methanone, [(2R)-4-[1-(2,6-difluoro-3-methoxyphenyl)-2-hydroxyethyl]-2-methyl-1-piperazinyl][5-(4-methoxyphenyl)-6-methyl-7-(trifluoromethyl)pyrazolo[1,5-α]pyrimidin-3-yl]-], for which the pIC50 in assay [1] and in assay [2] was more than 6.00 in each case.
As for `COc1ccc(-c2nc3c(C(=O)N4CCN([C@@H](CO)c5cccc(OC)c5)C[C@H]4C)cnn3c(C(F)(F)F)c2C)cc1` [methanone, [(2R)-4-[(1R)-2-hydroxy-1-(3-methoxyphenyl)ethyl]-2-methyl-1-piperazinyl][5-(4-methoxyphenyl)-6-methyl-7-(trifluoromethyl)pyrazolo[1,5-α]pyrimidin-3-yl]-], the pIC50 in assay [1] and in assay [2] was more than 6.00 each time.
With `COc1ccc(-c2nc3c(C(=O)N4CCN([C@@H](C)c5cc(F)c(F)c(F)c5)C[C@H]4C)cnn3c(C(F)(F)F)c2C)cc1` [methanone, [5-(4-methoxyphenyl)-6-methyl-7-(trifluoromethyl)pyrazolo[1,5-α]pyrimidin-3-yl][(2R)-2-methyl-4-[(1S)-1-(3,4,5-trifluorophenyl)ethyl]-1-piperazinyl]-], the pIC50 in assay [1] and in assay [2] was more than 6.00 in each case.
As for `COc1ccc(-c2nc3c(C(=O)N4CCN(C(CO)c5ccc(C(C)=O)s5)C[C@H]4C)cnn3c(C(F)(F)F)c2C)cc1` (some centres unmarked), the pIC50 in assay [1] was 5.00 to 5.96; in assay [2] it was more than 6.00.
For `COc1ccc(-c2nc3c(C(=O)N4CCN([C@@H](C)c5cc(F)cc(F)c5)C[C@H]4C)cnn3c(C(F)(F)F)c2C)cc1` [methanone, [(2R)-4-[(1S)-1-(3,5-difluorophenyl)ethyl]-2-methyl-1-piperazinyl][5-(4-methoxyphenyl)-6-methyl-7-(trifluoromethyl)pyrazolo[1,5-α]pyrimidin-3-yl]-], in that order: more than 6.00 and more than 6.00.
`COc1ccc(-c2nc3c(C(=O)N4CCN(C(CO)c5ccc(C(=O)O)s5)C[C@H]4C)cnn3c(C(F)(F)F)c2C)cc1` (stereo partly drawn) [2-thiophenecarboxylic acid, 5-[2-hydroxy-1-[(3R)-4-[[5-(4-methoxyphenyl)-6-methyl-7-(trifluoromethyl)pyrazolo[1,5-α]pyrimidin-3-yl]carbonyl]-3-methyl-1-piperazinyl]ethyl]-]: the pIC50 in assay [1] was 5.00 to 5.96; in assay [2] it was less than 5.00.
On the same counts, the results for `COc1ccc(-c2nc3c(C(=O)N4CCN([C@H](CO)c5ccccc5OC)C[C@H]4C)cnn3c(C(F)(F)F)c2C)cc1` [methanone, [(2R)-4-[(1S)-2-hydroxy-1-(2-methoxyphenyl)ethyl]-2-methyl-1-piperazinyl][5-(4-methoxyphenyl)-6-methyl-7-(trifluoromethyl)pyrazolo[1,5-α]pyrimidin-3-yl]-] are more than 6.00 and more than 6.00.
On the same counts, the results for `COc1ccc(-c2nc3c(C(=O)N4CCN([C@@H](C)c5ccccc5)C[C@H]4C)cnn3c(C(F)(F)F)c2C)cc1` [methanone, [5-(4-methoxyphenyl)-6-methyl-7-(trifluoromethyl)pyrazolo[1,5-α]pyrimidin-3-yl][(2R)-2-methyl-4-[(1S)-1-phenylethyl]-1-piperazinyl]-] are more than 6.00 and more than 6.00.
Consider `COc1ccc(-c2nc3c(C(=O)N4CCN([C@@H](CO)c5ccc(C)s5)C[C@H]4C)cnn3c(C(F)(F)F)c2C)cc1` [methanone, [(2R)-4-[(1S)-2-hydroxy-1-(5-methyl-2-thienyl)ethyl]-2-methyl-1-piperazinyl][5-(4-methoxyphenyl)-6-methyl-7-(trifluoromethyl)pyrazolo[1,5-α]pyrimidin-3-yl]-], for which the pIC50 in assay [1] and in assay [2] was more than 6.00 in each case.
For the molecule `COc1ccc(-c2nc3c(C(=O)N4CCN(C(CO)c5ccccc5)CC4)cnn3c(C(F)(F)F)c2C)cc1` (stereo not drawn) [methanone, [4-(2-hydroxy-1-phenylethyl)-1-piperazinyl][5-(4-methoxyphenyl)-6-methyl-7-(trifluoromethyl)pyrazolo[1,5-α]pyrimidin-3-yl]-], the pIC50 in assay [1] and in assay [2] was more than 6.00 each time.
As for `COc1ccc(-c2nc3c(C(=O)N4CCN(C(CO)c5ccoc5)C[C@H]4C)cnn3c(C(F)(F)F)c2C)cc1` (stereo partly drawn) [methanone, [(2R)-4-[1-(3-furanyl)-2-hydroxyethyl]-2-methyl-1-piperazinyl][5-(4-methoxyphenyl)-6-methyl-7-(trifluoromethyl)pyrazolo[1,5-α]pyrimidin-3-yl]-], the pIC50 in assay [1] and in assay [2] was more than 6.00 each time.
Consider `COc1ccc(-c2nc3c(C(=O)N4CCN(C(CO)c5cccc(N(C)C)c5)C[C@H]4C)cnn3c(C(F)(F)F)c2C)cc1` (stereo partly drawn) [methanone, [(2R)-4-[1-[3-(dimethylamino)phenyl]-2-hydroxyethyl]-2-methyl-1-piperazinyl][5-(4-methoxyphenyl)-6-methyl-7-(trifluoromethyl)pyrazolo[1,5-α]pyrimidin-3-yl]-], for which the pIC50 in assay [1] and in assay [2] was more than 6.00 each time.

The values are drawn from patent publication US20090215778A1, “Alpha-substituted Arylmethyl Piperazine Pyrazolo [1,5-alpha]Pyrimidine Amide Derivatives” (priority 2007, published 2009).
